Data: PubChem BioAssay (NCI)
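Results reflect a 48-hour exposure of cells in 96-well plates to compound at five concentrations. Definition used: TGI = concentration required for complete inhibition of growth.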

Key:
Assay in all cases: NCI tumour cell line growth inhibition, 48 h
[1] = system: 786-0 renal
[2] = system: A498 renal
[3] = system: A549 NSCLC
[4] = system: ACHN renal
[5] = system: CAKI-1 renal
[6] = system: CCRF-CEM leukemia
[7] = system: COLO 205 colon
[8] = system: DLD-1 colon
[9] = system: DMS 114 small cell lung
[10] = system: DMS 273 small cell lung
[11] = system: EKVX NSCLC
[12] = system: HCC-2998 colon
[13] = system: HCT-116 colon
[14] = system: HCT-15 colon
[15] = system: HL-60(TB) leukemia
[16] = system: HOP-18 NSCLC
[17] = system: HOP-62 NSCLC
[18] = system: HOP-92 NSCLC
[19] = system: HT29 colon
[20] = system: IGROV1 ovarian
[21] = system: K-562 leukemia
[22] = system: KM12 colon
[23] = system: KM20L2 colon
[24] = system: LXFL 529 NSCLC
[25] = system: M14 melanoma
[26] = system: M19-MEL melanoma
[27] = system: MALME-3M melanoma
[28] = system: MOLT-4 leukemia
[29] = system: NCI-H226 lung
[30] = system: NCI-H23 lung
[31] = system: NCI-H460 lung
[32] = system: NCI-H522 lung
[33] = system: OVCAR-3 ovarian
[34] = system: OVCAR-4 ovarian
[35] = system: OVCAR-5 ovarian
[36] = system: OVCAR-8 ovarian
[37] = system: RPMI-8226 leukemia
[38] = system: RXF-631 renal
[39] = system: SF-268 CNS
[40] = system: SF-295 CNS
[41] = system: SF-539 CNS
[42] = system: SK-MEL-2 melanoma
[43] = system: SK-MEL-28 melanoma
[44] = system: SK-MEL-5 melanoma
[45] = system: SK-OV-3 ovarian
[46] = system: SN12C renal
[47] = system: SNB-19 CNS
[48] = system: SNB-75 CNS
[49] = system: SNB-78 CNS
[50] = system: SR leukemia
[51] = system: SW-620 colon
[52] = system: TK-10 renal
[53] = system: U251 CNS
[54] = system: UACC-257 melanoma
[55] = system: UACC-62 melanoma
[56] = system: UO-31 renal
[57] = system: XF 498 CNS

Measured: TGI

Cc1cccc(C)c1NC(=O)CCCC(=O)C1/C(=N/NC(=O)CC#N)CCC/C1=N\NC(=O)CC#N (configuration not stated)
> 100 µM: all assays above
